# Test results reported in BindingDB's records for doi:10.1021/jm070299x (Bristol Myers Squibb, 2007).
# Target: Inosine-5'-monophosphate dehydrogenase 2 (Homo sapiens, UniProt P12268)
# Test: IMPDH2 Enzyme Inhibition and Human T-Lymphoblast (CEM) Proliferation Inhibition Assays
# Conditions: pH 8; 25 °C
# Method: Inhibition assays were performed using recombinant human IMPDH type 2 and varying concentrations of inhibitor. The production of NADH was monitored by following changes in absorbance at 340 nm. […] The in vivo activities of compounds were also evaluated the inhibition of T-cell proliferation in CEM lymphoblast cells. The EC50/IC50 values were calculated using a four-parameter logistic plot.
row,IC50 [nM],SMILES
1,2100,"CC(C)(NC(=O)c1ccc2c(=O)c3ccccc3[nH]c2c1)c1ccccc1 [9-oxo-N-(2-phenylpropan-2-yl)-9,10-dihydroacridine-3-carboxamide]"
2,830,"CC(C)(NC(=O)c1cc2[nH]c3ccccc3c(=O)c2cc1F)c1ccccc1 [2-fluoro-9-oxo-N-(2-phenylpropan-2-yl)-9,10-dihydroacridine-3-carboxamide]"
3,870,"Cc1cc(C(C)(C)NC(=O)c2cc3[nH]c4ccccc4c(=O)c3cc2F)cnc1N1CCOCC1 [2-fluoro-N-{2-[5-methyl-6-(morpholin-4-yl)pyridin-3-yl]propan-2-yl}-9-oxo-9,10-dihydroacridine-3-carboxamide]"
4,1000,"CC(C)(NC(=O)c1cc2[nH]c3ccccc3c(=O)c2cc1F)c1ccccn1 [2-fluoro-9-oxo-N-[2-(pyridin-2-yl)propan-2-yl]-9,10-dihydroacridine-3-carboxamide]"
5,> 10000,"CCOC(=O)c1ccc2c(=O)c3ccccc3[nH]c2c1 [ethyl 9-oxo-9,10-dihydroacridine-3-carboxylate]"
6,770,"CCN1CCN(c2ccc(C(C)(C)NC(=O)c3cc4[nH]c5ccccc5c(=O)c4cc3F)cn2)CC1 [Acridone-Based Inhibitor, 4m]"
7,640,"CN(C)c1cc(C(C)(C)NC(=O)c2cc3[nH]c4ccccc4c(=O)c3cc2F)ccn1 [N-{2-[2-(dimethylamino)pyridin-4-yl]propan-2-yl}-2-fluoro-9-oxo-9,10-dihydroacridine-3-carboxamide]"
8,560,"CN(C)CCOc1ccc(C(C)(C)NC(=O)c2cc3[nH]c4ccccc4c(=O)c3cc2F)cc1 [N-(2-{4-[2-(dimethylamino)ethoxy]phenyl}propan-2-yl)-2-fluoro-9-oxo-9,10-dihydroacridine-3-carboxamide]"
9,480,"CC(C)(NC(=O)c1cc2[nH]c3ccccc3c(=O)c2cc1F)c1ccc(S(C)(=O)=O)cc1 [2-fluoro-N-[2-(4-methanesulfonylphenyl)propan-2-yl]-9-oxo-9,10-dihydroacridine-3-carboxamide]"
10,2200,"CC(C)(NC(=O)c1ccc2c(=O)c3ccccc3[nH]c2c1)c1ccccn1 [9-oxo-N-[2-(pyridin-2-yl)propan-2-yl]-9,10-dihydroacridine-3-carboxamide]"
11,810,"COc1cc(C(C)(C)NC(=O)c2cc3[nH]c4ccccc4c(=O)c3cc2F)cnc1N1CCOCC1 [2-fluoro-N-{2-[5-methoxy-6-(morpholin-4-yl)pyridin-3-yl]propan-2-yl}-9-oxo-9,10-dihydroacridine-3-carboxamide]"
12,580,"CC(C)(NC(=O)c1cc2[nH]c3ccccc3c(=O)c2cc1F)c1cccc(S(C)(=O)=O)c1 [2-fluoro-N-[2-(3-methanesulfonylphenyl)propan-2-yl]-9-oxo-9,10-dihydroacridine-3-carboxamide]"
13,750,"Cc1ccc(C(C)(C)NC(=O)c2cc3[nH]c4ccccc4c(=O)c3cc2F)cn1 [2-fluoro-N-[2-(6-methylpyridin-3-yl)propan-2-yl]-9-oxo-9,10-dihydroacridine-3-carboxamide]"
14,920,"CC(C)(NC(=O)c1cc2[nH]c3ccccc3c(=O)c2cc1F)c1cnc2c(c1)OCCN2 [2-fluoro-9-oxo-N-(2-{2H,3H,4H-pyrido[3,2-b][1,4]oxazin-7-yl}propan-2-yl)-9,10-dihydroacridine-3-carboxamide]"
15,2300,"CC(C)(NC(=O)c1ccc2c(=O)c3ccccc3[nH]c2c1)c1ccncc1 [9-oxo-N-[2-(pyridin-4-yl)propan-2-yl]-9,10-dihydroacridine-3-carboxamide]"
16,2200,"CC(C)(NC(=O)c1ccc2c(=O)c3ccccc3[nH]c2c1)c1cccnc1 [9-oxo-N-[2-(pyridin-3-yl)propan-2-yl]-9,10-dihydroacridine-3-carboxamide]"
17,660,"CC(C)(NC(=O)c1cc2[nH]c3ccccc3c(=O)c2cc1F)c1ccc(N2CCOCC2)nc1 [2-fluoro-N-{2-[6-(morpholin-4-yl)pyridin-3-yl]propan-2-yl}-9-oxo-9,10-dihydroacridine-3-carboxamide]"
18,420,"CC(C)(NC(=O)c1cc2[nH]c3ccccc3c(=O)c2cc1F)c1cccnc1 [2-fluoro-9-oxo-N-[2-(pyridin-3-yl)propan-2-yl]-9,10-dihydroacridine-3-carboxamide]"
19,850,"CN(C)c1ccc(C(C)(C)NC(=O)c2cc3[nH]c4ccccc4c(=O)c3cc2F)cn1 [N-{2-[6-(dimethylamino)pyridin-3-yl]propan-2-yl}-2-fluoro-9-oxo-9,10-dihydroacridine-3-carboxamide]"
20,660,"CN(C)S(=O)(=O)c1ccc(C(C)(C)NC(=O)c2cc3[nH]c4ccccc4c(=O)c3cc2F)cc1 [N-{2-[4-(dimethylsulfamoyl)phenyl]propan-2-yl}-2-fluoro-9-oxo-9,10-dihydroacridine-3-carboxamide]"
21,3300,"CC(C)(C)NC(=O)c1ccc2c(=O)c3ccccc3[nH]c2c1 [N-tert-butyl-9-oxo-9,10-dihydroacridine-3-carboxamide]"
22,380,"CN(C)S(=O)(=O)c1cccc(C(C)(C)NC(=O)c2cc3[nH]c4ccccc4c(=O)c3cc2F)c1 [N-{2-[3-(dimethylsulfamoyl)phenyl]propan-2-yl}-2-fluoro-9-oxo-9,10-dihydroacridine-3-carboxamide]"

# Same assay, conditions: pH 8; 25 °C; read-out: IC50
row,IC50 [nM],SMILES
1,59,"CCOC(=O)c1ccc2c(=O)c3ccccc3[nH]c2c1 [ethyl 9-oxo-9,10-dihydroacridine-3-carboxylate]"
